Consider 40 compounds from PubChem BioAssay AID977618 (Broad Institute, 2014).

The term AC50 denotes the concentration at which the activity in the assay is half-maximal.

Values joined by “and” are separate entries in the source; they are usually repeats but may differ in a detail not shown here. Identical values can stand only once. Active and inactive are the calls of the source.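 The calls were made as follows: active = compounds lowering the cell ATP signal with fitted AC50 at most twice the top tested dose; inconclusive = flat fit between -70 and -30, or a poor fit; inactive = the rest.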 Bounds are passed on as bounds.

In the first experiment the test system is HEK293T viability, CellTiter-Glo ATP luminescence, 72 h. Kind of experiment: HEK293T cell cytotoxicity, dose response, cytotoxicity control, CellTiter-Glo luminescence, dry powder, set 16 (AID 977618).
Details: not given
Consider `Cc1cnc(NC(=O)c2cc(S(=O)(=O)N(CC(C)C)CC(C)C)ccc2N2CCCC2)s1`, for which the AC50 was > 60 µM (inactive).

System in a further experiment: not listed separately
The experiment is described as above. The note with it: HEK293T viability, CellTiter-Glo ATP luminescence, 72 h; at 30 µM (top of the series). For orientation: In ATP-based viability assays light output follows the ATP content of the culture.
`CN(C)C(=O)c1cc(S(=O)(=O)N(C)C)ccc1N1CCCC1`: the activity change, negative = cytotoxicity was 0.495% (inactive).

`COc1ccc(NC(=O)c2cc(S(=O)(=O)N(C)C)ccc2N2CCCC2)cc1`: the activity change, negative = cytotoxicity is -3.02% (inactive).

For the compound `COc1cccc2sc(NC(=O)c3cc(S(=O)(=O)N(C)C)ccc3N3CCCC3)nc12`, the activity change, negative = cytotoxicity is -4.26% (inactive).

For the compound `CCN(CC)S(=O)(=O)c1ccc(N2CCCC2)c(C(=O)Nc2ncc(C)s2)c1`, the activity change, negative = cytotoxicity is -2.95% (inactive).

Turning to `Cc1cnc(NC(=O)c2cc(S(=O)(=O)N(C)C)ccc2N(C)C)s1`, the activity change, negative = cytotoxicity was -10% (inactive).

For `COc1ccc2nc(NC(=O)c3cc(S(=O)(=O)N(C)C)ccc3N3CCCC3)sc2c1`, the activity change, negative = cytotoxicity was -3.18% (inactive).

Turning to `CN(C)CCCN(Cc1cc2ccccc2[nH]c1=O)C(=O)Nc1ccccc1`, the activity change, negative = cytotoxicity is -4.05% (inactive).

With `Cc1ccccc1NC(=O)c1cc(S(=O)(=O)N(C)C)ccc1N1CCCC1`, the activity change, negative = cytotoxicity is -9.68% (inactive).

With `CN(C)S(=O)(=O)c1ccc(N2CCCC2)c(C(=O)Nc2nccs2)c1`, the activity change, negative = cytotoxicity was -6.06% (inactive).

`CN(C)S(=O)(=O)c1ccc(N2CCCC2)c(C(=O)Nc2ccccc2)c1`: the activity change, negative = cytotoxicity is -5.37% (inactive).

In the case of `Cc1cnc(NC(=O)c2cc(S(=O)(=O)NCc3ccccc3)ccc2N2CCCC2)s1`, the activity change, negative = cytotoxicity was -10.3% (inactive).

Consider `Cc1cnc(NC(=O)c2cc(S(=O)(=O)N(C)C)ccc2N2CCC2)s1`, for which the activity change, negative = cytotoxicity was -5.02% (inactive).

As for `Cc1nc(NC(=O)c2cc(S(=O)(=O)N(C)C)ccc2N2CCCC2)n[nH]1`, the activity change, negative = cytotoxicity was -1.85% (inactive).

Regarding `CN(C)CCCN(Cc1cc2ccccc2[nH]c1=O)C(=O)NCc1ccccc1`, the activity change, negative = cytotoxicity is -7.51% (inactive).

Take `CN(C)S(=O)(=O)c1ccc(N2CCCC2)c(C(=O)Nc2ccccc2F)c1`: the activity change, negative = cytotoxicity is -17.6% (inactive).

In the case of `Cc1cnc(NC(=O)c2cc(S(=O)(=O)N3CCCCC3)ccc2N2CCCC2)s1`, the activity change, negative = cytotoxicity was 1.32% (inactive).

With `CN(C)S(=O)(=O)c1ccc(N2CCCC2)c(C(=O)N2CCOCC2)c1`, the activity change, negative = cytotoxicity was -15.1% (inactive).

For `CN(C)S(=O)(=O)c1ccc(N2CCCC2)c(C(=O)Nc2cccc(F)c2)c1`, the activity change, negative = cytotoxicity was -5.2% (inactive).

In the case of `CN(C)S(=O)(=O)c1ccc(N2CCCC2)c(C(=O)Nc2ccncc2)c1`, the activity change, negative = cytotoxicity was -8.58% (inactive).

Regarding `CN(C)S(=O)(=O)c1ccc(N2CCCC2)c(C(=O)Nc2ccc(Br)cc2)c1`, the activity change, negative = cytotoxicity was -1.97% (inactive).

For `Cc1cnc(NC(=O)c2cc(S(=O)(=O)N3CCCC3)ccc2N2CCCC2)s1`, the activity change, negative = cytotoxicity was 16.8% (inactive).

As to `Cc1cnc(NC(=O)c2cc(S(=O)(=O)N(C)C)ccc2N2CCCCC2)s1`, the activity change, negative = cytotoxicity is -9.94% (inactive).

Consider `Cc1nnc(NC(=O)c2cc(S(=O)(=O)N(C)C)ccc2N2CCCC2)s1`, for which the activity change, negative = cytotoxicity was -7.43% (inactive).

For the compound `Cc1cnc(NC(=O)c2cc(S(=O)(=O)N3CCNCC3)ccc2N2CCCC2)s1`, the activity change, negative = cytotoxicity is -12.1% (inactive).

With `Cc1ccc(NC(=O)c2cc(S(=O)(=O)N(C)C)ccc2N2CCCC2)cc1`, the activity change, negative = cytotoxicity was -11.3% (inactive).

Take `COc1ccc2sc(NC(=O)c3cc(S(=O)(=O)N(C)C)ccc3N3CCCC3)nc2c1`: the activity change, negative = cytotoxicity is 1.94% (inactive).

Turning to `CN(C)S(=O)(=O)c1ccc(N2CCCC2)c(C(=O)Nc2cccnc2)c1`, the activity change, negative = cytotoxicity was 3.26% (inactive).

For the compound `COc1ccccc1NC(=O)c1cc(S(=O)(=O)N(C)C)ccc1N1CCCC1`, the activity change, negative = cytotoxicity was -2.97% (inactive).

Turning to `CCN(CC)c1ccc(S(=O)(=O)N(C)C)cc1C(=O)Nc1ncc(C)s1`, the activity change, negative = cytotoxicity was -18.6% (inactive).

With `Cc1cnc(NC(=O)c2cc(S(=O)(=O)N3CCOCC3)ccc2N2CCCC2)s1`, the activity change, negative = cytotoxicity is 9.35% (inactive).

As to `Cc1csc(NC(=O)c2cc(S(=O)(=O)N(C)C)ccc2N2CCCC2)n1`, the activity change, negative = cytotoxicity is -4.9% (inactive).

Consider `Cc1cnc(NC(=O)c2cccc(S(=O)(=O)N(C)C)c2)s1`, for which the activity change, negative = cytotoxicity was -1.48% (inactive).

As to `Cc1cnc(NC(=O)c2cc(S(=O)(=O)N(C)c3ccccc3)ccc2N2CCCC2)s1`, the activity change, negative = cytotoxicity is 1.78% (inactive).

In the case of `CN(C)S(=O)(=O)c1ccc(N2CCCC2)c(C(=O)Nc2ccccc2Cl)c1`, the activity change, negative = cytotoxicity is -6.21% (inactive).

On to `CN(C)S(=O)(=O)c1ccc(N2CCCC2)c(C(=O)Nc2nc3ccccc3s2)c1`, for which the activity change, negative = cytotoxicity is 8.82% (inactive).

As for `Cc1cnc(NC(=O)c2cc(S(=O)(=O)N(C)C)ccc2N2CCNCC2)s1`, the activity change, negative = cytotoxicity is -1.97% (inactive).

On to `CN(C)S(=O)(=O)c1ccc(N2CCCC2)c(C(=O)NC2CCCCC2)c1`, for which the activity change, negative = cytotoxicity is -11.1% (inactive).

As to `Cc1cnc(NC(=O)c2cc(S(=O)(=O)N(C)C)ccc2N2CCCC2)s1`, the activity change, negative = cytotoxicity was 8.71% (inactive) and 10.8% (inactive).

In the case of `Cc1cnc(NC(=O)c2cc(S(=O)(=O)N(C)C)ccc2C2CCCC2)s1`, the activity change, negative = cytotoxicity is -1.05% (inactive).
